Test results from paper PMC9404985, “Development of Dicationic Bisguanidine-Arylfuran Derivatives as Potent Agents against Gram-Negative Bacteria” (Antibiotics, 2022).

How the values were obtained:
[1] = tested on: A. baumannii (CCUG #57035); experiment: Antibacterial activity against isolates (Omnilog, Biolog redox dye); assay type: cell-based, Acinetobacter baumannii; conditions: for EC50 / EC90: Acinetobacter baumannii, CCUG57035, ca-MH broth, 24 h, 37 °C; for Selectivity index A. baumannii (CCUG #57035): SI = ((EC50 MCF-7 + EC50 HepG2)/2)/EC50 bacterial strain
Method: (§1) The antibacterial activities of eight compounds (1, 3, 4, 6, 8, 10, 16, and 17) were tested against 10 different isolates of Gram-negative bacteria from human and other sources, two E. coli (CCUG #67180 and CCUG #17620/ATCC #25922, control strain), two K. pneumoniae (CCUG #58547 and CCUG #225T), two P. aeruginosa (CCUG #17619 and CCUG #59347), two A. baumannii (CCUG #57035 and CCUG #57250), E. cloacae (CCUG #6323T), and E. hormaechei (CCUG #58962) in a 96-well plate format. […] Bacterial mass from the ten isolates grown overnight on horse blood or Mueller–Hinton agar plates was suspended in ca-MH and adjusted to a final inoculum cell density of ~5 × 10^5 CFU/mL. For all assays, Biolog redox dye A diluted 100× from the stock solution was used for measurements of all ten isolates (up to a total volume of 120 µL per well). All plates included one well per isolate with only inoculum and dye but no test compound (i.e., positive control) and one well per isolate with inoculum, dye and DMSO diluted 1667×, corresponding to the DMSO concentration in the wells with the highest concentration of test compound. All measurements were performed using the Omnilog microplate reader (Biolog, Hayward, CA, USA) where the 96-well plates were read at 15 min intervals for a total of 24 h at 37 °C.

[2] = Cytotoxicity assay (PrestoBlue) MCF-7; assay type: cell-based; conditions: human, MCF-7 cells (breast cancer cell line), 24 h incubation
Method: The cytotoxicity levels of all compounds were evaluated against human Michigan Cancer Foundation-7 (MCF-7) and Hepatoma G2 cell line (HepG2) cell lines. MCF-7 is an extensively characterized breast cancer cell line isolated in 1970 [41], while HepG2 cells were derived from a hepatoma in 1975 [42]. Both cell lines grow robustly during in vitro culture and have been widely used for cytotoxicity testing. Cells of hepatic origin, such as HepG2, are of particular relevance for toxicity studies as many drugs accumulate in the liver during metabolic conversion. Cells were grown in Dulbecco’s Modified Eagle Medium supplemented with 10% fetal calf serum and kept in exponential growth, as previously reported. Before the assay, cells were reseeded into 96-well microtiter plates at a density allowing continued exponential growth and let to settle for 24 h. The compounds were added from a stock solution in DMSO, for a final concentration of 0.3% v/v of the solvent in the culture medium. After 24 h of incubation in presence of the compound, cell viability was assayed using PrestoBlue Cell Viability Reagent (resazurin-based solution, ThermoFisher, Waltham, MA, USA) according to the manufacturer’s instructions. […] Each assay contained a DMSO control at the equivalent starting concentration, positive control (uninhibited cell growth) and negative control (cell medium only). Survival was expressed as percentage of the solvent-only control. […] The Selectivity Index (SI) for each compound and bacterial strain was calculated as the ratio between the mean of the EC50 values for the two human cell lines and the EC50 for the bacterial strain in question ((EC50 MCF-7 + EC50 HepG2)/2)/EC50 bacterial strain).

E. coli (CCUG #67180) = experiment: Antibacterial activity against isolates (Omnilog, Biolog redox dye); assay type: cell-based, Escherichia coli; conditions: for EC90 / EC50: Escherichia coli, ca-MH broth, 24 h, 37 °C; for EC90: CCUG67180, 24 h; for EC50: CCUG67180; for Selectivity index E. coli (CCUG #67180): SI = ((EC50 MCF-7 + EC50 HepG2)/2)/EC50 bacterial strain
Method: (§2) The antibacterial activities of eight compounds (1, 3, 4, 6, 8, 10, 16, and 17) were tested against 10 different isolates of Gram-negative bacteria from human and other sources, two E. coli (CCUG #67180 and CCUG #17620/ATCC #25922, control strain), two K. pneumoniae (CCUG #58547 and CCUG #225T), two P. aeruginosa (CCUG #17619 and CCUG #59347), two A. baumannii (CCUG #57035 and CCUG #57250), E. cloacae (CCUG #6323T), and E. hormaechei (CCUG #58962) in a 96-well plate format. The compounds to test were 3-fold diluted in six steps in cation-adjusted Mueller-Hinton (ca-MH) broth to final concentrations spanning from 30 to 0.12 µM, i.e., a 1667–416,667 times dilution from the 50 mM stocks. Bacterial mass from the ten isolates grown overnight on horse blood or Mueller–Hinton agar plates was suspended in ca-MH and adjusted to a final inoculum cell density of ~5 × 10^5 CFU/mL. For all assays, Biolog redox dye A diluted 100× from the stock solution was used for measurements of all ten isolates (up to a total volume of 120 µL per well). All plates included one well per isolate with only inoculum and dye but no test compound (i.e., positive control) and one well per isolate with inoculum, dye and DMSO diluted 1667×, corresponding to the DMSO concentration in the wells with the highest concentration of test compound. All measurements were performed using the Omnilog microplate reader (Biolog, Hayward, CA, USA) where the 96-well plates were read at 15 min intervals for a total of 24 h at 37 °C.

[3] = tested on: E. coli (CCUG #17620/ ATCC #25922); experiment: as above; assay type: cell-based, Escherichia coli; conditions: for EC50 / EC90: Escherichia coli, ca-MH broth, 24 h, 37 °C; for Selectivity index E. coli (CCUG #17620/ ATCC #25922): SI = ((EC50 MCF-7 + EC50 HepG2)/2)/EC50 bacterial strain
Method: as §2

[4] = tested on: A. baumannii (CCUG #57250); experiment: as above; assay type: cell-based, Acinetobacter baumannii; conditions: for EC90 / EC50: Acinetobacter baumannii, ca-MH broth, 24 h, 37 °C; for EC90: CCUG57250, 24 h; for EC50: CCUG57250; for Selectivity index A. baumannii (CCUG #57250): SI = ((EC50 MCF-7 + EC50 HepG2)/2)/EC50 bacterial strain
Method: as §2

[5] = tested on: P. aeruginosa (CCUG #17619); experiment: as above; assay type: cell-based, Pseudomonas aeruginosa; conditions: for EC50 / EC90: Pseudomonas aeruginosa, CCUG17619, ca-MH broth, 24 h, 37 °C; for Selectivity index P. aeruginosa (CCUG #17619): SI = ((EC50 MCF-7 + EC50 HepG2)/2)/EC50 bacterial strain
Method: as §2

[6] = tested on: P. caledonica (NBRC/ATCC #102488); experiment: Antibacterial resazurin assay, laboratory strain; conditions: for EC50 / EC90: Paraburkholderia caledonica, ATCC102488, 18 h; for EC50: read-out: Pcal EC50; for EC90: read-out: Pcal EC90; for Selectivity index P. caledonica: mean of MCF-7 and HepG2 EC50 over bacterial EC50, laboratory strain
[7] = tested on: E. hormaechei (CCUG #58962); experiment: Antibacterial activity against isolates (Omnilog, Biolog redox dye); assay type: cell-based, Enterobacter hormaechei; conditions: for EC50 / EC90: Enterobacter hormaechei, CCUG58962, ca-MH broth, 24 h, 37 °C; for Selectivity index E. hormaechei (CCUG #58962): SI = ((EC50 MCF-7 + EC50 HepG2)/2)/EC50 bacterial strain
Method: as §1

| SMILES | EC50 [1] | EC90 [1] | Selectivity index A. baumannii (CCUG #57035) [1] | EC50 at 24 h [2] | EC90 (E. coli (CCUG #67180)) | EC50 (E. coli (CCUG #67180)) | Selectivity index E. coli (CCUG #67180) (E. coli (CCUG #67180)) | EC50 [3] | EC90 [3] | Selectivity index E. coli (CCUG #17620/ ATCC #25922) [3] | EC90 [4] | EC50 [4] | Selectivity index A. baumannii (CCUG #57250) [4] | EC50 [5] | EC90 [5] | Selectivity index P. aeruginosa (CCUG #17619) [5] | EC50 [6] | EC90 [6] | EC50 [7] | EC90 [7] | other results |
| --- | --- | --- | --- | --- | --- | --- | --- | --- | --- | --- | --- | --- | --- | --- | --- | --- | --- | --- | --- | --- | --- |
| Cc1cc(NC(=N)N)ccc1-c1ccc(-c2ccc(NC(=N)N)cc2C)o1 [Compound 4, 2,5-Bis(4-guanidino-2-methylphenyl)furan] | 16 µM | 23.5 µM | 4.7 | > 100 µM | 25.3 µM | 23.1 µM | 3.3 | 11.3 µM | 18.3 µM | 6.7 | 22.5 µM | 15.8 µM | 4.8 | 17.9 µM | 25.4 µM | 4.2 | 8.2 µM | 51.9 µM | 21.9 µM | 25.9 µM | Selectivity index P. caledonica [6]: 9.2; Selectivity index E. hormaechei (CCUG #58962) [7]: 3.4 |
| N=C(N)Nc1ccc(-c2ccc(C(=O)N3CCc4cc(NC(=N)N)ccc43)o2)cc1 [Compound 17, (5-(4-guanidinophenyl)furan-2-yl)(5-guanidinoindolin-1-yl)methanone] | 148 µM | > 200 µM | 1.3 | 149 µM | 19.9 µM | 14.2 µM | 13.7 | 16.4 µM | 24 µM | 11.8 | 90.3 µM | 61.8 µM | 3.1 | 22.9 µM | 27 µM | 8.5 | 72.5 µM | > 300 µM | > 200 µM | > 200 µM | Selectivity index P. caledonica [6]: 2.7 |
| N=C(N)Nc1ccc(-c2ccc(C(=O)N3CCc4cc(NC(=N)N)ccc43)o2)c(Cl)c1 [Compound 16, (5-(2-chloro-4-guanidinophenyl)furan-2-yl)(5-guanidinoindolin-1-yl)methanone] | 16.5 µM | 24.4 µM | 12.7 | 177 µM | 27.1 µM | 23 µM | 9.1 | 13.6 µM | 19.7 µM | 15.4 | 12.5 µM | 12.5 µM | 16.7 | 17.1 µM | 22.9 µM | 12.2 | 51.4 µM | 176 µM | 12.7 µM | 14.7 µM | Selectivity index P. caledonica [6]: 4.1; Selectivity index E. hormaechei (CCUG #58962) [7]: 16.4 |
| COc1cc(NC(=N)N)ccc1-c1ccc(-c2ccc(NC(=N)N)cc2OC)o1 [Compound 6, 2,5-Bis(4-guanidino-2-methoxyphenyl)furan] | 6.8 µM | 11 µM | 21.3 | 74.7 µM | 74.4 µM | 63.4 µM | 2.3 | 6.2 µM | 7.5 µM | 23.1 | 8.8 µM | 7.6 µM | 19.0 | 24.6 µM | 28.7 µM | 5.9 | 25.6 µM | 35.6 µM | 15.9 µM | 22.9 µM | Selectivity index P. caledonica [6]: 5.6; Selectivity index E. hormaechei (CCUG #58962) [7]: 9.0 |
| COC(=O)c1cc(NC(=N)N)ccc1-c1ccc(-c2ccc(NC(=N)N)cc2C(=O)OC)o1 [Compound 8, 2,5-Bis(4-guanidino-2-(methylcarboxy)phenyl)furan] | 5.2 µM | 7 µM | 47.2 | 81.6 µM | 67.5 µM | 53.4 µM | 4.6 | 6 µM | 8.2 µM | 40.5 | 5.1 µM | 4.4 µM | 55.3 | > 200 µM | > 200 µM |  | > 300 µM | > 300 µM | 8.3 µM | 8.7 µM | Selectivity index E. hormaechei (CCUG #58962) [7]: 29.4 |
